Reference: patent US20230116703A1, “NOVEL ERGOLINES AND METHODS OF TREATING MOOD DISORDERS” (priority 2021, published 2023)
Like-named read-outs stand apart in the source and are kept apart here.

Tests used:
5-HT2A receptor = molecular target: T1, 5-HT2A receptor (Homo sapiens, UniProt P28223); experiment: biochemical; type: binding; settings: 1 nM [^3H]ketanserin, HEK293 stable cell line; read-out: 5-HT2A Receptor Ki (nM) ([^3H]ketanserin)
T1 construct: host or cells: HEK293
In short: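 Binding affinity comes from a [^3H]ketanserin radioligand assay run under literature-adapted conditions.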

5-HT1A receptor = molecular target: T2, 5-HT1A receptor (Homo sapiens, UniProt P08908); experiment: cell-based; settings: Ca^2+ flux, agonist; read-out: 5-HT1A EC50
T2 construct: host or cells: CHO cells
T2 sequence (P08908 1-422): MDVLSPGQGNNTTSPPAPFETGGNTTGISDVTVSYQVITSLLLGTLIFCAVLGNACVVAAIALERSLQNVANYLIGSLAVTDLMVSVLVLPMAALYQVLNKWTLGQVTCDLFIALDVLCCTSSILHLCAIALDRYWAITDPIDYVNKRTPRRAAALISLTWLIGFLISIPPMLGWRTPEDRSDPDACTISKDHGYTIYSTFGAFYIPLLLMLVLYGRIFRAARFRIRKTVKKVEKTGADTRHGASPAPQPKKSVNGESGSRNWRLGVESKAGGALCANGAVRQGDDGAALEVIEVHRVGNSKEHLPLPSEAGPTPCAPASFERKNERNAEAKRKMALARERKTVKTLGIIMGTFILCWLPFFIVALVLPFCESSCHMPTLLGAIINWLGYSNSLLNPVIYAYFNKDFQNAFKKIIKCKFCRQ

5-HT2B receptor = molecular target: T3, 5-HT2B receptor (Homo sapiens, UniProt P41595); experiment: cell-based; settings: Ca^2+ flux, agonist; for EC50: read-out: 5-HT2B EC50
T3 construct: host or cells: HEK293
T3 sequence (P41595 whole entry): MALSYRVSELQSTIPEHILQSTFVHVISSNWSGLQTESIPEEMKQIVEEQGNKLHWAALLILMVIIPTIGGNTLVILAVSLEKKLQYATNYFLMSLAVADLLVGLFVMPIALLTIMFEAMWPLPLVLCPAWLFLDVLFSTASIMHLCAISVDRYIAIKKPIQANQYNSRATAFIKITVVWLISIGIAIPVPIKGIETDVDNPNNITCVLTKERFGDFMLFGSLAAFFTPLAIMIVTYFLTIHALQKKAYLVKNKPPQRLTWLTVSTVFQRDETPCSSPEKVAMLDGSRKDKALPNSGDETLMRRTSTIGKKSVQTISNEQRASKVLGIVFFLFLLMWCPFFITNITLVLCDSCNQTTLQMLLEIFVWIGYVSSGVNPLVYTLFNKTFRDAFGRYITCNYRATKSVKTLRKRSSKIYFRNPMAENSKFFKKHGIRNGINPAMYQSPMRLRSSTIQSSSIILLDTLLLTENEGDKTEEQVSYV

5-HT1B receptor = 5-HT1B receptor (Homo sapiens, UniProt P28222); experiment: cAMP accumulation agonist assay at 5-HT1B; type: cell-based; settings: cAMP, agonist; for EC50: read-out: 5-HT1B EC50
Sequence of 5-HT1B receptor (P28222 whole entry): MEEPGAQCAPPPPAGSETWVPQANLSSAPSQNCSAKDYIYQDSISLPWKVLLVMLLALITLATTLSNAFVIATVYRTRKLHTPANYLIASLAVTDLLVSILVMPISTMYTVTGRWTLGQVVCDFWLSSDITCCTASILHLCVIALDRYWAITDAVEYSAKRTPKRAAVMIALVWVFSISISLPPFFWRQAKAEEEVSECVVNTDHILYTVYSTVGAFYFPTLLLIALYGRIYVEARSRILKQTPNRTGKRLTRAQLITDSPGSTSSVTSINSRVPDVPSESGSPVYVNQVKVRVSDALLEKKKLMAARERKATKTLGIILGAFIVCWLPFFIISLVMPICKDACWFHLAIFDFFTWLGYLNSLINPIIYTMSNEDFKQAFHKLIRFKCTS
In short: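 Agonism was measured by cAMP accumulation in stably transfected cells incubated 60 min at RT. A detection reagent was then added for 60 min at RT before reading, with an 800 nM cAMP standard in blank wells.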

Alpha2A receptor = molecular target: T4, Alpha2A receptor (Homo sapiens, UniProt P08913); experiment: FLIPR Ca^2+ flux agonist assay at Alpha2A; type: cell-based
T4 sequence (P08913 1-465): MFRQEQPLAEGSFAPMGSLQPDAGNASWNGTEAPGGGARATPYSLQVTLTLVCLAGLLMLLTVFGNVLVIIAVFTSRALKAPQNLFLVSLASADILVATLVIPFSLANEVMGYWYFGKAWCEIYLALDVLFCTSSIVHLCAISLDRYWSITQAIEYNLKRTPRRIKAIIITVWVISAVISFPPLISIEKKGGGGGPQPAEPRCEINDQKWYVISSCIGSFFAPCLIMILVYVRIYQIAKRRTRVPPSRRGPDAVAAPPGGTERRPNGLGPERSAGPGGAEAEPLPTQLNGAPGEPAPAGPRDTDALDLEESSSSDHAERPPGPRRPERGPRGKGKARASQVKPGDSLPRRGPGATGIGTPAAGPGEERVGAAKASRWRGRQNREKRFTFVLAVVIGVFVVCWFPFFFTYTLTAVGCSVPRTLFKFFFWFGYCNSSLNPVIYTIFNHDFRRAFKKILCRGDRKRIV
Description: (§1) Functional Assays at Adrenergic and Dopamine Receptors. Agonist activity at Alpha1A, Alpha2A, D1, and D2 receptors was determined using a FLIPR Ca^2+ flux assay at WuXi AppTec (Hong Kong) Limited according to their standard protocols. Briefly, stably transfected cells expressing the receptor of interest were grown and plated in a 384 well plate and incubated at 37° C. and 5% CO2 overnight. A solution of 250 mM probenecid in 1 mL FLIPR assay buffer was prepared fresh. This was combined with a fluorescent dye (Fluo-4 Direct™) to make a final assay concentration of 2.5 mM. […] The fluorescent dye was then added to the assay plate along with assay buffer to a final volume of 40 μL. The cell plate was incubated for 50 min at 37° C. and 5% CO2 and placed into the FLIPR Tetra along with the compound plate. 10 μL of references and compounds were then transferred from the compound plate into the cell plate and the fluorescent signal was read.

D2 receptor = D2 receptor (Homo sapiens, UniProt P14416); experiment: FLIPR Ca^2+ flux agonist assay at D2; type: cell-based
Sequence of D2 receptor (P14416 whole entry): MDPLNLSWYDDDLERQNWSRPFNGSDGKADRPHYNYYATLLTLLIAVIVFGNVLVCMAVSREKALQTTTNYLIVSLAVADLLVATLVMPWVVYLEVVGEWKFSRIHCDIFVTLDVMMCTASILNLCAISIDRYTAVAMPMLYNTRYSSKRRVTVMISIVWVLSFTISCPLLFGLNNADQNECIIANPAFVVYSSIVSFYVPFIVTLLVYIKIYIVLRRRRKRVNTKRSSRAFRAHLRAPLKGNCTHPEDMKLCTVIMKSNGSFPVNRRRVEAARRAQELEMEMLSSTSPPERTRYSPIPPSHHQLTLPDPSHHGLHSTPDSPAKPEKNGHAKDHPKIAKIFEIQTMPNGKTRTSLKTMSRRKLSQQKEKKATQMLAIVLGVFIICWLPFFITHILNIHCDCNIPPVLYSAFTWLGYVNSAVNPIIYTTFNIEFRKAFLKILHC
Description: as §1

[1] = Ca^2+ flux, agonist, read-out: Alpha 2A EC50
[2] = Ca^2+ flux, agonist, read-out: D2 EC50

T1 sequence (P28223 whole entry): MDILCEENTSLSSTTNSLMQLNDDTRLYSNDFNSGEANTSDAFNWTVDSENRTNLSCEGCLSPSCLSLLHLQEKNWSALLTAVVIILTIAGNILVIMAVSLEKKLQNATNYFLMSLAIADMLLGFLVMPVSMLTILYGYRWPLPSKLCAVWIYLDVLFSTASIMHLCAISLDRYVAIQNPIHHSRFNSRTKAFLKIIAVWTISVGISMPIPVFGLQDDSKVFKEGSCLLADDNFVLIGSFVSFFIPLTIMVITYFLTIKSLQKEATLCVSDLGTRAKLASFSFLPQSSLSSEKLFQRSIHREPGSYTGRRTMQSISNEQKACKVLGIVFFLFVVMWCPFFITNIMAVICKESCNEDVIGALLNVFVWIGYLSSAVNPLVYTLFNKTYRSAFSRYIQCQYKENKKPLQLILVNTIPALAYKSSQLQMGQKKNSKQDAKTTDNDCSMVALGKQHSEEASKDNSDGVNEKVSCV

Row | SMILES | Ki (5-HT2A receptor) | EC50 (5-HT1A receptor) | EC50 (5-HT2B receptor) | EC50 (5-HT1B receptor) | EC50 (Alpha2A receptor) | EC50 (D2 receptor) | 5-HT1B % Act @ Max Dose (5-HT1B receptor) | EC50 (Alpha2A receptor; [1]) | EC50 (D2 receptor; [2]) | 5-HT2B % Act @ Max Dose (5-HT2B receptor)
1 | CCCN1C[C@H](C(=O)N(CC)CC)C=C2c3cccc4[nH]cc(c34)C[C@H]21 [Compound 1, (6aR,9R)—N,N-diethyl-7-propyl-4,6,6a,7,8,9-hexahydroindolo[4,3-fg]quinoline-9-carboxamide] | 1.06 nM | 44.4 nM | 104 nM | 3.82 nM | 42.2 nM | 2.17 nM |  |  |  | 
2 | CCN(CC)C(=O)[C@@H]1C=C2c3cccc4[nH]cc(c34)C[C@H]2N(CCCF)C1 [Compound 2, (6aR,9R)—N,N-diethyl-7-(3-fluoropropyl)-4,6,6a,7,8,9-hexahydroindolo[4,3-fg]quinoline-9-carboxamide] | 2.79 nM | 25.4 nM | 202 nM | 193 nM | 1000 nM | 27.7 nM |  |  |  | 
3 | CCCN1C[C@H](C(=O)N[C@H](C)CC)C=C2c3cccc4[nH]cc(c34)C[C@H]21 [Compound 3, (6aR,9R)—N—((R)-sec-butyl)-7-propyl-4,6,6a,7,8,9-hexahydroindolo[4,3-fg]quinoline-9-carboxamide] | 1.36 nM | 1.79 nM | 62 nM | 68.8 nM | 3640 nM | 27.2 nM |  |  |  | 
4 | CCCN1C[C@H](C(=O)N2[C@@H](C)C[C@@H]2C)C=C2c3cccc4[nH]cc(c34)C[C@H]21 [Compound 4, ((2S,4S)-2,4-dimethylazetidin-1-yl)((6aR,9R)-7-propyl-4,6,6a,7,8,9-hexahydroindolo[4,3-fg]quinolin-9-yl)methanone] | 3.07 nM | 5.88 nM | 511 nM | 97.6 nM | 1080 nM | 21 nM | 96% |  |  | 
5 | CCCN1C[C@H](C(=O)NC(CC)CC)C=C2c3cccc4[nH]cc(c34)C[C@H]21 [Compound 6, (6aR,9R)—N-(pentan-3-yl)-7-propyl-4,6,6a,7,8,9-hexahydroindolo[4,3-fg]quinoline-9-carboxamide] | 1.16 nM | 36.1 nM | 253 nM | 201 nM |  | 7.01 nM |  |  |  | 
6 | CCN(CC)C(=O)[C@@H]1C=C2c3cccc4[nH]cc(c34)C[C@H]2N(Cc2ccccc2OC)C1 [Compound 10, (6aR,9R)—N,N-diethyl-7-(2-methoxybenzyl)-4,6,6a,7,8,9-hexahydroindolo[4,3-fg]quinoline-9-carboxamide] | 32.7 nM | 30600 nM | > 10000 nM | 3190 nM |  |  |  | > 31600 nM | 983 nM | 
7 | CCN(CC)C(=O)[C@@H]1C=C2c3cccc4[nH]cc(c34)C[C@H]2N(CCc2ccccc2OC)C1 [Compound 11, (6aR,9R)—N,N-diethyl-7-(2-methoxyphenethyl)-4,6,6a,7,8,9-hexahydroindolo[4,3-fg]quinoline-9-carboxamide] | 0.69 nM | 29800 nM | > 10000 nM | 448 nM |  |  |  | > 31600 nM | 854 nM | 2.5%
